Measured values as given in patent publication US10857105B2, “Compounds and compositions for intracellular delivery of therapeutic agents” (ModernaTX, Inc., priority 2017, dated 2020).

Columns and labels:
modified luciferase = experiment: Luciferase expression in liver, lung, spleen and femur 6 hours after intravenous administration to mice; type: in vivo; conditions: 6 hours after intravenous 0.5 mpk, mice
Procedure, shortened: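 Mice (n=3) got a single 0.5 mpk IV dose of each nanoparticle composition, with MC3 and PBS controls alongside. Organ luminescence flux was read 6 h post-dose.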

IL-6, IP-10 = experiment: Cytokine induction (IL-6, IP-10) in mice 6 hours after intravenous administration; type: in vivo; parameters: unit not given here; conditions: intravenous 0.5 mpk
Procedure, shortened: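 IL-6 and IP-10 concentrations determined 6 hours after a single intravenous 0.5 mpk dose of lipid nanoparticle formulation in mice, with MC3 and PBS as comparators.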

hEPO mRNA = experiment: hEPO expression after intravenous administration to rats; type: in vivo, rat; conditions: for Lipid/MC3 hEPO expression: 6 hours after administration; for hEPO expression, 0.25 h / hEPO expression, 0.5 h / hEPO expression, 1 h / hEPO expression, 2 h / hEPO expression, 4 h / hEPO expression / hEPO expression, 8 h / hEPO expression, 24 h / hEPO expression, 48 h: rat; for Lipid/MC3 hEPO conc. ratio, 0.2 mpk / Lipid/MC3 hEPO conc. ratio, 2 mpk: rats
Experimental: The expression of hEPO and cytokine induction in rats intravenously administered a nanoparticle composition at a dose of 2.0 mpk was measured at 6 h.
(§1) The expression of hEPO in rats intravenously administered a nanoparticle composition at a dose of 0.2 mpk or 2.0 mpk was measured at 6 hours. Table 16 summarize the ratio of hEPO expression levels using various nanoparticle compositions as compared to the hEPO expression level using MC3 formulation and the lipid levels in the liver measured 48 hours after administration, as described above. Tables 17 and 18 summarize the lipid levels in the liver and spleen measured 48 hours after administration of Compounds 28, 33, 53, and 54. Liver and spleen levels represent the average values calculated for 3 rats in each group. As is shown in Tables 17 and 18, less than 10% of Compounds 28, 33, 53, and 54 remained in the liver after 48 hours, while greater than 60% of MC3 remained.
(§2) Table 19A summarizes the hEPO expression, IP-10 induction, liver and spleen levels, and alanine aminotransferase (ALT) and aspartate aminotransferase (AST) measured upon intravenous administration of formulations including Compounds 48, 49, and 50 to rat at 0.2 and 2 mpk and hEPO mRNA. hEPO concentrations were measured 6 hours after administration, while cytokine induction and liver and spleen levels were measured 48 hours after administration. hEPO and IP-10 concentrations are presented in pg/ml, while liver levels are provided in ng/g. ALT and AST levels are presented in international units.
The expression of hEPO induced by intravenous administration to rats of nanoparticle compositions at various doses was measured at 2, 4, 6, 8, 24, and 48 hour time points. FIGS. 3-6 respectively summarize the hEPO expression measured upon intravenous administration of formulations including Compounds 26, 18, 25, and MC3 to rat at various doses. The lipid levels of Compound 26 in the liver after 48 hours were about 19%.
(§3) The expression of hEPO and lipid levels in the liver and spleen in rats intravenously administered a nanoparticle composition at a dose of 0.2 mpk was measured at various time points. Compounds 18 and 25 were selected for comparison with MC3. Lipids were formulated according to the standard MC3 formulation described above. Rats were administered intravenously a single 0.2 mpk dose and expression monitored at 0.25, 0.5, 1, 2, 4, 8, 24, and 48 hours after administration.

[1] = Residual lipid levels in rat liver and spleen (UPLC-MS); type: in vivo; conditions: for % Lipid Remaining in liver, 48 h, 2 mpk: assuming 300 g rat and 15 g liver
Experimental: At 48 h liver tissue was harvested for lipid quantification. To pre-weighed tissues, Milli-Q water was added (900 μL water per 100 mg tissue). Tissues were homogenized using an Omni probe homogenizer until uniform. 50 μL of samples and matrix calibration standards were aliquoted into a 96-well plate. 50 μL of blank matrix for matrix blanks and control blanks were aliquoted. 400 μL IS spiking solution were manually added to all samples except matrix blanks. 400 μL of 50:50 ACN:IPA were manually added to matrix-blanks. The plate was covered and the samples vortexed and centrifuged for 5 minutes at >3000 rpm. 200 μL of the samples were transferred into a clean 96-well plate for analysis. Samples were analyzed on a Waters Acquity UPLC using a Higgins Analytical Clipeus C8 column ([…], 30×2.1 mm) and a gradient of either 70-95% or 60-95% (Mobile Phase A: 5 mM ammonium formate in 50:50:1 H2O:MeOH:formic acid; Mobile Phase B: 5 mM ammonium formate in 100:1 MeOH:formic acid) over 1.3 min at […] (column temperature 55° C.). Detection was based on electrospray ionization (ESI) in positive mode using a Sciex API5500 Mass Spectrometer.
as §1, §2, §3

SMILES	Total Flux, Femur (modified luciferase)	Total Flux, Liver (modified luciferase)	Total Flux, Lung (modified luciferase)	Total Flux, Spleen (modified luciferase)	Cytokine induction, IL-6 (IL-6, IP-10)	Cytokine induction, IP-10 (IL-6, IP-10)	hEPO expression, 0.25 h (hEPO mRNA; intravenous 0.2 mpk) [pg/mL]	hEPO expression, 0.5 h (hEPO mRNA; intravenous 0.2 mpk) [pg/mL]	hEPO expression, 1 h (hEPO mRNA; intravenous 0.2 mpk) [pg/mL]	hEPO expression, 2 h (hEPO mRNA; intravenous 0.2 mpk) [pg/mL]	hEPO expression, 4 h (hEPO mRNA; intravenous 0.2 mpk) [pg/mL]	hEPO expression, 8 h (hEPO mRNA; intravenous 0.2 mpk) [pg/mL]	hEPO expression, 24 h (hEPO mRNA; intravenous 0.2 mpk) [pg/mL]	hEPO expression, 48 h (hEPO mRNA; intravenous 0.2 mpk) [pg/mL]	hEPO expression (hEPO mRNA; intravenous, 6 h, 2 mpk) [pg/mL]	Lipid/MC3 hEPO conc. ratio, 0.2 mpk (hEPO mRNA; intravenous 0.2 mpk, 6 hours)	Lipid/MC3 hEPO conc. ratio, 2 mpk (hEPO mRNA; intravenous 2 mpk, 6 hours)	% Lipid Remaining in liver, 48 h, 2 mpk ([1]; rats, 48 h) [%]	further results
CCCCCC=CCC=CCCCCCCCCC(CCCCCCCCC=CCC=CCCCCC)OC(=O)CCCN(C)C (stereo not shown) [MC3, heptatriaconta-6,9,28,31-tetraen-19-yl 4-(dimethylamino)butanoate, reference compound]	2.56E+06	2.57E+09	1.27E+07	2.85E+07	124.42	504.90	0	42457	93720	524093	601307	1536833	703619	64687	1.33e+07	1	1	87	Lipid/MC3 hEPO expression (hEPO mRNA; 0.2 mpk dose to rat): 1; Lipid/MC3 hEPO expression (hEPO mRNA; 2 mpk dose to rat): 1; [hEPO] (hEPO mRNA; Table 19B): 14800 pg/mL; hEPO AUC (hEPO mRNA; Table 19B): 3.46e+07 pg·h/mL; hEPO expression (hEPO mRNA; intravenous 0.2 mpk, 6 hours): 7.68e+06 pg/mL; hEPO expression (hEPO mRNA; intravenous 2 mpk, 6 hours): 9.29e+06 pg/mL; % dose remaining, liver, 24 h ([1]; Table 19B, liver, 24 h): 44%; % lipid remaining in liver after 48 hours ([1]; liver, 48 hours): 87%; % remaining dose in liver, 48 h ([1]; rats, 48 h): 74%; Lipid remaining in the liver after 48 hours ([1]; rats, intravenous, 0.2 mpk or 2.0 mpk, 48 hours): greater than 60%
CCCCCCCCCCCOC(=O)CCCCCN(CCO)CCCCCCCC(=O)OC(CCCCCCCC)CCCCCCCC [Compound 25, Heptadecan-9-yl 8-((2-hydroxyethyl)(6-oxo-6-(undecyloxy)hexyl)amino)octanoate]	4.40E+06	2.41E+09	1.51E+07	3.11E+07	233.45	1194.13	0	19553	434299	2042807	3176560	2631633	869374	103089	3.05e+07	2.41	2.13	1.32	–
CCCCCCCCCOC(=O)CCCN(CCO)CCCCCCCC(=O)OC(CCCCCCCC)CCCCCCCC [Compound 26, Heptadecan-9-yl 8-((2-hydroxyethyl)(4-(nonyloxy)-4-oxobutyl)amino) octanoate]	4.67E+06	2.90E+09	1.18E+07	1.56E+07	273.56	2330.01	–	–	–	–	–	–	–	–	–	–	4.95	20	–
CCCCCC/C=C\COC(=O)CCCCCCCN(CCO)CCCCCCCC(=O)OC(CCCCCCCC)CCCCCCCC [Compound 24, Heptadecan-9-yl (Z)-8-((2-hydroxyethyl) (8-(non-2-en-1-yloxy)-8-oxooctyl)amino)octanoate]	4.54E+06	4.19E+09	1.71E+07	8.78E+07	163.53	1172.93	–	–	–	–	–	–	–	–	1.44e+07	1.75	1.01	0.016	–
